Results on three compounds are retold here after patent US20110176998A1, “IMAGING AND THERAPY OF VIRUS-ASSOCIATED TUMORS” (THE JOHNS HOPKINS UNIVERSITY, priority 2007, published 2011).

For data set [1], the system named is EBV viral DNA copy number. Nature of the data set: real-time PCR for EBV viral DNA copy number (viral replication). It is filed as cell-based, Epstein-Barr virus. The conditions noted are these: for EBV viral replication (DNA copy number): LCL and SNU719 cells, 1 μM, 48 hours. How it is done: Genomic DNA from treated cells were extracted with the QIAamp DNA mini kit (Qiagen, CA) according to the manufacturer's instructions. PCRs were set up in a volume of 50 μL with a TaqMan PCR core reagent kit (Perkin-Elmer Corp., Branchburg, N.J.). Fluorescent probes were custom synthesized by Perkin-Elmer Applied Biosystems. PCR primers were synthesized by Gibco BRL (Frederick, Md.). Each reaction contained 5 μL of 10× buffer A (4 mM MgCl2), amplification primers (300 nM), fluorescent probe (25 nM), dATP, dCTP, and dGTP (200 μM each), dUTP (400 uM), 1.25 U of AmpliTaq Gold, and 0.5 U of AmpErase uracil N-glycosylase. Extracted genomic DNA was used for amplification. DNA amplification was carried out in a 96-well reaction plate in a Perkin-Elmer Applied Biosystems 7700 sequence detector. Each sample was analyzed in duplicate, and multiple negative water blanks were included in each analysis. A calibration curve was run in parallel and in duplicate with each analysis, with DNA extracted from the EBV-positive cell line Namalwa as a standard.
The EBV genome was quantified by real-time PCR with the ICycler system (Biorad, Hercules, Calif.). Template DNA was extracted with a mini blood DNA Kit (Qiagen, Valencia, Calif.). […]. A calibration curve was run in parallel and in duplicate with each analysis, using DNA extracted from the diploid EBV-positive cell line Namalwa containing two integrated viral genomes per cell as a standard. Amplification data were collected with an MyiQ single color real-time PCR Detector (Biorad) and analyzed with the MyiQ software developed by Biorad.

Data set [2] concerns BZLF1 protein (ZTA). Nature of the data set: Western blot / immunoblot for ZTA (BZLF1 protein) in EBV positive cell lines. It is filed as cell-based, Epstein-Barr virus. On the procedure:
To detect expression of the EBV-TK or EBV-ZTA, total cell protein was first extracted by treating cells with lysis buffer (0.05 M Tris, pH 7.6, 0.15 M NaCl, 1% triton-X 100, 2 mM EDTA) containing protease inhibitors for 10 minutes at 4° C. The following reagents were added to 1 mL of lysis buffer: 2 μL leupeptin (5 mg/mL), 1 μL 0.2 M Na3VO4, 1 μL NaF, 1 μL aprotinin (10 mg/ml), 1 μL, pepstatin (2 mM), and 10 μL PMSF (100 mM) for 10 minutes at 4° C. Following centrifugation, the supernatant was collected and stored at −80° C. Protein concentration was determined with the BCA Protein Assay Kit (Pierce, Rockford, Ill.) according to the manufacturer's instructions. A 10 μg aliquot of total cellular protein was fractionated on a 7.5% SDS-polyacrylamide gel. Proteins were transferred to PROTRAN nitrocellulose membrane (Schleicher & Schuell, Keene, N.H.). The membranes were blocked with 5% blotting grade non-fat dry milk (Bio-rad, Hercules, Calif.) in PBS with 0.1% TWEEN-20 (PBS-T) at 4° C. overnight. The membranes were then washed with PBS-T twice followed by incubation with 1/1,000-diluted rabbit anti-TK sera from a rabbit immunized with a synthetic EBV-TK peptide ([…]) or anti-ZTA monoclonal antibody (Argene, North Massapequa, N.Y.) at room temperature for 1 hour. After washing, the membranes were incubated with HRP-conjugated goat anti-rabbit IgG antibodies or HRP-conjugated goat anti-mouse IgG antibodies (Amersham Pharmacia Biotech, Piscataway, N.J.) at a 1/5,000 dilution in PBS-T at room temperature for 1 hour. The membranes were washed twice and proteins were detected with ECL Western Blotting Detection reagents (Amersham Pharmacia Biotech). The membranes were exposed to X-OMAT film (Kodak, Rochester, N.Y.) at room temperature.
For lytic induction studies, cells were seeded at 10^6/ml, and treated with test compounds for 48 hours. Control untreated cells were incubated in parallel.
Cells were washed with PBS twice. Total cellular protein was extracted with lysis buffer. Proteins were electrophoresed in polyacrylamide and then transferred onto a PROTRAN nitrocellulose membrane (Schleicher&Schuell, Keene, N.H.). Blots were probed with primary antibody (Ab) overnight at 4° C. HRP-conjugated secondary Ab was added after washing and detected by an enhanced chemiluminescence system (ECL) (Amersham). The following antibodies were used: anti-ZTA (Argene), anti-f3-actin (Sigma), anti-mouse (Sigma).
For orientation: Immunoblotting shows a protein as a band on a membrane.

Data set [3] relates to EBV-positive lymphoblastoid cells (LCL). Nature of the data set: immunofluorescence assay for BZLF1 protein in LCL cells. It is filed as cell-based, Epstein-Barr virus. The note with it: 1 μM, 48 hours. How it is done: LCL cells were treated with 1 μM Ara-c for 48 hours. The cells were then washed with PBS, resuspended, and plated on polylysine glass slides. Indirect immunofluorescence assays and fluorescence microscopy were performed. The slides were fixed in methanol at −20° C., washed with PBS, then incubated in primary antibody anti-ZTA (1:200) (Argene), washed with PBS, followed by secondary antibody incubation of donkey rhodamine-conjugated IgG (Jackson Pharmaceuticals, west Grove, Pa.). Mounting solution with 4′,6′-diamidino-2-phenylindole (DAPI) (Vector Shield) was used to mark the nucleus of the cell. Slides were then observed and photographed with 40× objectives on a E800 microscope (NIKON) with CCD camera (Princeton Instruments) using Metamorph software (Universial Imaging-Molecular Devices).

Data set [4] deals with EBV-TK. Nature of the data set: immunoblot for EBV-TK expression. It is filed as cell-based, Epstein-Barr virus. The note with it: Western blot. How it is done: To detect expression of the EBV-TK or EBV-ZTA, total cell protein was first extracted by treating cells with lysis buffer (0.05 M Tris, pH 7.6, 0.15 M NaCl, 1% triton-X 100, 2 mM EDTA) containing protease inhibitors for 10 minutes at 4° C. The following reagents were added to 1 mL of lysis buffer: 2 μL leupeptin (5 mg/mL), 1 μL 0.2 M Na3VO4, 1 μL NaF, 1 μL aprotinin (10 mg/ml), 1 μL, pepstatin (2 mM), and 10 μL PMSF (100 mM) for 10 minutes at 4° C. Following centrifugation, the supernatant was collected and stored at −80° C. Protein concentration was determined with the BCA Protein Assay Kit (Pierce, Rockford, Ill.) according to the manufacturer's instructions. A 10 μg aliquot of total cellular protein was fractionated on a 7.5% SDS-polyacrylamide gel. Proteins were transferred to PROTRAN nitrocellulose membrane (Schleicher & Schuell, Keene, N.H.). The membranes were blocked with 5% blotting grade non-fat dry milk (Bio-rad, Hercules, Calif.) in PBS with 0.1% TWEEN-20 (PBS-T) at 4° C. overnight. […] The membranes were washed twice and proteins were detected with ECL Western Blotting Detection reagents (Amersham Pharmacia Biotech). […]

For data set [5], the system named is Zta promoter. It counts as cell-based, Epstein-Barr virus. The conditions noted are these: AGS cells.
The conditions of data set [6]: cited from earlier work.
For data set [7] the following is noted: serum and whole blood; 24 hour period; cited from earlier work.
For data set [8] the following is noted: in vivo; cited from earlier work.
Data set [9] in a line: earlier clinical use of FIAU (toxicity). It is filed as in vivo, humans. The conditions noted are these: conservatively estimated. On the procedure:
With regard to the potential clinical use of BETR therapy, FIAU-associated toxicity warrants discussion. FIAU was previously investigated as an antiviral agent. […] In those trials, treatment for less than four weeks with a cumulative dose less than 200 mg was not associated with either clinical or biochemical evidence of toxicity. Thus, the “no-effect dose” of FIAU might be conservatively estimated to be on the order of 0.1 mg/kg per administration. […] Extrapolating from xenograft experiments, a radiotherapeutic effect is likely to be achieved at doses of FIAU that are orders of magnitude times less than the no-effect FIAU dose in humans.

The test system of data set [10] is AGS-BX1 cells. As to the kind of experiment: GFP assay in AGS-BX1 cells. The note with it: 1 μM.

Consider `Nc1ccn([C@@H]2O[C@H](CO)[C@@H](O)[C@@H]2O)c(=O)n1` [Cytarabine], for which the results for the “EBV viral replication (DNA copy number)” value in [1] and in data set [1] (listed as Ara-c) were “did not induce” and “not amplified”, respectively. Also, the “BZLF1 protein (ZTA) expression” value in data set [2] (AKATA(-BX1), LCL and SNU719 cells, 1 μM, 48 hours) is listed as “induced”. In addition, the “LCL cells induced into lytic infection” value in data set [3] worked out at 40%. In addition, the “EBV early lytic gene TK expression” value in data set [4] was “induced”. For the same compound, the “Zta promoter luciferase activity” value in [5] is on record as “induced”.

On to `O=c1[nH]c(=O)n([C@@H]2O[C@H](CO)[C@@H](O)[C@@H]2F)cc1I` [FIAU, 2′-fluoro-2′-deoxy-β-D-5-iodouracil-arabinofuranoside], for which the “toxicity of chronic dosing” value in data set [6] (earlier antiviral trials) was “hepatic damage and in some cases fatality”. For the same compound, the “cumulative dose not associated with clinical or biochemical evidence of toxicity” value in data set [6] (treatment for less than four weeks) is recorded as “less than 200 mg”. Also, in [7], the “labeled compound remaining unchanged” value was 97.8%±0.1%. Moreover, the blood-brain barrier penetration entry in data set [8] was “does not penetrate the blood-brain barrier”. Further, the no-effect dose in data set [9] was ~0.1 mg/kg per administration.

As to `COC(=O)Nc1nc2ccc(C(=O)c3ccccc3)cc2[nH]1` [Mebendazole], the “increase of EBV viral DNA copy number” value in [1] (LCL cells and Rael cells, 1 μM for 48 hours) is 20 fold. For the same compound, in [2] (LCL cells and AKATA cells), the ZTA expression result is on record as “induced”. Further, the GFP signal entry in [10] is recorded as “induced GFP signal”. The “induction of BZLF1 promoter” value in [5] (1 μM) was “induced”.
